Measurements reported in article PMC3176149, “Application of Celluspots peptide arrays for the analysis of the binding specificity of epigenetic reading domains to modified histone tails” (BMC Biochemistry, 2011).
“Also recorded” adds a separate entry of the source.

How the values were obtained:
[1] = system: Dnmt3a PWWP domain (residues 279-420); experiment: Binding of GST-fused Dnmt3a PWWP domain to modified histone peptides on Celluspots peptide arrays; parameters: species or system murine; conditions: Dnmt3a PWWP GST fusion 50 nM, room temperature, 2 hours, interaction buffer pH 7.5, ECL, tested at least two times
Method: In the present study, the binding specificities of seven known reading domains were analyzed using Celluspots peptide arrays comprising 384 peptides from 8 different regions of the N-terminal histone tails, viz. H3 1-19, 7-26, 16-35 and 26-45, H4 1-19 and 11-30, H2A 1-19 and H2B 1-19. The arrays are commercially available from Active Motif and feature 59 post-translational modifications (most of them identified, some of them hypothetical) in many different combinations (Additional file 1). Binding of the GST fused reading domain proteins to peptide arrays was visualized using an anti-GST antibody, followed by a secondary anti-goat-HRP antibody and ECL detection system. The domains were selected to represent the different folds of reading domains and show a wide range of specificities. […] Each reading domain was tested at least two times on the peptide arrays to ensure that the results are reliable. […] The binding intensities for each tested reading domain were analyzed with the Array Analyze program, which calculates the average of the binding intensities to corresponding peptide spots in both copies of the array and prepares a graphical output - one scatter plot illustrating the binding intensities observed at corresponding spots in both copies of the array and a bar diagram showing the distribution of deviations of the binding intensities to the corresponding spots. […]

Dnmt3a PWWP domain = conditions: SPOT arrays and follow-up experiments; ref [19]; cited from earlier work
Method: These binding modules are about 50 amino acids long and contain two binding sites for zinc ions. The PHD finger of Rag2, an essential component of the Rag1/2 V(D)J recombinase, which mediates antigen-receptor gene assembly, interact ... || Another reading domain which was tested on the Celluspots peptide arrays is the PWWP domain of Dnmt3a. […] Since there is only one H3K36me3-modified peptide spot, the effect of enhancing or inhibiting secondary modifications could not be studied in this case. […] Since peptide arrays are screening tools, unexpected or novel results need to be confirmed by equilibrium peptide binding experiments using purified peptides. In our experience, such studies often confirmed results from peptide arrays. For example in the case of the Dnmt3a PWWP domain, binding ...

[2] = system: 53BP1 tandem Tudor domain (residues 1490-1608); experiment: Binding of GST-fused 53BP1 tandem Tudor domain to modified histone peptides on Celluspots peptide arrays; parameters: species or system human; conditions: 53BP1 tandem Tudor GST fusion 1 μM, room temperature, 2 hours, interaction buffer pH 7.5, ECL, tested at least two times
Method: (§1) In the present study, the binding specificities of seven known reading domains were analyzed using Celluspots peptide arrays comprising 384 peptides from 8 different regions of the N-terminal histone tails, viz. H3 1-19, 7-26, 16-35 and 26-45, H4 1-19 and 11-30, H2A 1-19 and H2B 1-19. The arrays are commercially available from Active Motif and feature 59 post-translational modifications (most of them identified, some of them hypothetical) in many different combinations (Additional file 1). Binding of the GST fused reading domain proteins to peptide arrays was visualized using an anti-GST antibody, followed by a secondary anti-goat-HRP antibody and ECL detection system. […] In case of weak signals, the experiment was repeated with higher protein concentration. In case of an overexposed image, the protein concentration was reduced. For quality control, each glass slide contains two identical copies of the array. […] The sequences encoding human HP1ß full length (residues 1-185), the Chromo domain of human MPP8 (residues 58-112), the double Tudor domain of human JMJ[…] (residues 856-1047), the tandem Tudor domain of human 53BP1 (residues 1490-1608), the PHD finger of human Rag2 (residues 311-520) and the second Bromo domain of human BRD2 (residues 348-455) were amplified from cDNA derived from HEK293 cells and cloned as GST fusion proteins into the pGEX-6P-2 vector (GE Healthcare).

[3] = system: 53BP1 tandem Tudor domain; conditions: ref [14],[15]; cited from earlier work
Source text: (§2) The Tudor domain folds into a ß-sandwich flanked by one α-helix.

[4] = system: JMJD2A double Tudor domain (residues 856-1047); experiment: Binding of GST-fused JMJD2A double Tudor domain to modified histone peptides on Celluspots peptide arrays; parameters: species or system human; conditions: JMJD2A double Tudor GST fusion 10 nM, room temperature, 2 hours, interaction buffer pH 7.5, ECL, tested at least two times
Method: as §1

[5] = system: JMJD2A double Tudor domain; conditions: ref [14],[17],[18]; cited from earlier work
Source text: as §2

Substance | binding to modified histone tail peptides (array signal) [1] | interaction with 53BP1 tandem Tudor domain (literature) [3] | further results
H3K36me2: H3K36me2 modified histone tail peptide on Celluspots array | weaker binding signal in comparison to H3K36me3 |  | 
H3K36me3: H3K36me3-modified peptide spot on Celluspots array (only one) | specifically bound |  | interaction with Dnmt3a PWWP domain (literature) (Dnmt3a PWWP domain): specific interaction; also recorded: could be verified by peptide binding, pull-down of native nucleosomes and functional DNA methylation experiments; also recorded: shown to read H3K36me3
H4K20me1: H4K20me1 modified histone tail peptide on Celluspots array |  | reported to interact | binding to modified histone tail peptides (array signal) [2]: not observed on the peptide array
H4K20me2: H4K20me2 modified histone tail peptide on Celluspots array |  | reported to interact; also recorded: shown to interact | binding to modified histone tail peptides (array signal) [4]: next best bound modification on the peptide array; binding to JMJD2A double Tudor domain (literature) [5]: interact preferentially; also recorded: reported to bind
